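Grown in 96-well plates, cells were treated for 48 hours with each compound at five concentrations. Insufficient inhibition: endpoint recorded as highest concentration tested. GI50 = concentration required for 50% inhibition of growth. TGI is the concentration that stops growth completely.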 Square brackets hold non-standard residues; d marks the D form. Peptide text beside a SMILES is read from it. * marks the point of attachment. ξ: configuration not given here. Boc = CC(C)(C)OC(=O)*; ξV = CC(C)C(N)C(=O)O; OBn = c1ccc(CO*)cc1
Assays:
Experiment in all cases: inhibition of tumour cell growth, NCI panel, 48 h
[1] = test system: 786-0 renal
[2] = test system: A498 renal
[3] = test system: A549 NSCLC
[4] = test system: ACHN renal
[5] = test system: BT-549 breast
[6] = test system: CAKI-1 renal
[7] = test system: CCRF-CEM leukemia
[8] = test system: DU-145 prostate
[9] = test system: EKVX NSCLC
[10] = test system: HCC-2998 colon
[11] = test system: HCT-116 colon
[12] = test system: HCT-15 colon
[13] = test system: HL-60(TB) leukemia
[14] = test system: HOP-62 NSCLC
[15] = test system: HOP-92 NSCLC
[16] = test system: HS 578T breast
[17] = test system: HT29 colon
[18] = test system: IGROV1 ovarian
[19] = test system: K-562 leukemia
[20] = test system: KM12 colon
[21] = test system: LOX IMVI melanoma
[22] = test system: M14 melanoma
[23] = test system: MALME-3M melanoma
[24] = test system: MCF7 breast
[25] = test system: MDA-MB-231 breast
[26] = test system: MOLT-4 leukemia
[27] = test system: NCI-H226 lung
[28] = test system: NCI-H23 lung
[29] = test system: NCI-H460 lung
[30] = test system: NCI-H522 lung
[31] = test system: NCI/ADR-RES ovarian
[32] = test system: OVCAR-3 ovarian
[33] = test system: OVCAR-4 ovarian
[34] = test system: OVCAR-5 ovarian
[35] = test system: OVCAR-8 ovarian
[36] = test system: PC-3 prostate
[37] = test system: RPMI-8226 leukemia
[38] = test system: SF-268 CNS
[39] = test system: SF-295 CNS
[40] = test system: SF-539 CNS
[41] = test system: SK-MEL-2 melanoma
[42] = test system: SK-MEL-28 melanoma
[43] = test system: SK-MEL-5 melanoma
[44] = test system: SK-OV-3 ovarian
[45] = test system: SN12C renal
[46] = test system: SNB-19 CNS
[47] = test system: SNB-75 CNS
[48] = test system: SR leukemia
[49] = test system: SW-620 colon
[50] = test system: T-47D breast
[51] = test system: TK-10 renal
[52] = test system: U251 CNS
[53] = test system: UACC-62 melanoma
[54] = test system: UO-31 renal
[55] = test system: COLO 205 colon
[56] = test system: MDA-MB-435
[57] = test system: UACC-257 melanoma

COc1ccc(C2[C@@H](c3ccccc3)C(=O)N2c2cc(OC)c(OC)c(OC)c2)cc1F (some centres not stated)
GI50 [1]: 31.4 nM
TGI [1]: > 100 µM
GI50 [2]: 27 nM
TGI [2]: 0.0861 µM
GI50 [3]: 0.0368 µM
TGI [3]: > 100 µM
GI50 [4]: 44 nM
TGI [4]: > 100 µM
GI50 [5]: 26.6 nM
TGI [5]: 0.09 µM
GI50 [6]: 33.2 nM
TGI [6]: > 100 µM
GI50 [7]: 36.1 nM
TGI [7]: > 100 µM
GI50 [8]: 35.4 nM
TGI [8]: > 100 µM
GI50 [9]: 77.6 nM
TGI [9]: > 100 µM
GI50 [10]: 0.0394 µM
TGI [10]: > 100 µM
GI50 [11]: 32.4 nM
TGI [11]: 10.4 µM
GI50 [12]: 33.6 nM
TGI [12]: > 100 µM
GI50 [13]: 22.3 nM
TGI [13]: 54.2 nM
GI50 [14]: 0.0379 µM
TGI [14]: > 100 µM
GI50 [15]: 2840 nM
TGI [15]: > 100 µM
GI50 [16]: 43.4 nM
TGI [16]: 78.7 µM
GI50 [17]: 26 nM
TGI [17]: 78.1 nM
GI50 [18]: 42.8 nM
TGI [18]: > 100 µM
GI50 [19]: 32.1 nM
TGI [19]: > 100 µM
GI50 [20]: 33.1 nM
TGI [20]: > 100 µM
GI50 [21]: 29.6 nM
TGI [21]: 13.8 µM
GI50 [22]: 22.6 nM
TGI [22]: 67.2 nM
GI50 [23]: > 100000 nM
TGI [23]: > 100 µM
GI50 [24]: 29.6 nM
TGI [24]: > 100 µM
GI50 [25]: 45.2 nM
TGI [25]: > 100 µM
GI50 [26]: 38.1 nM
TGI [26]: > 100 µM
GI50 [27]: 0.035 µM
TGI [27]: > 100 µM
GI50 [28]: 48.9 nM
TGI [28]: > 100 µM
GI50 [29]: 34.4 nM
TGI [29]: > 100 µM
GI50 [30]: 18.6 nM
TGI [30]: 65.7 nM
GI50 [31]: 0.0394 µM
TGI [31]: > 100 µM
GI50 [32]: 28 nM
TGI [32]: 77 nM
GI50 [33]: 87.1 nM
TGI [33]: > 100 µM
GI50 [34]: 51.7 nM
TGI [34]: > 100 µM
GI50 [35]: 34.4 nM
TGI [35]: > 100 µM
GI50 [36]: 40.3 nM
TGI [36]: > 100 µM
GI50 [37]: 41.3 nM
TGI [37]: 4 µM
GI50 [38]: 44.3 nM
TGI [38]: > 100 µM
GI50 [39]: 0.029 µM
TGI [39]: 1.78 µM
GI50 [40]: 23.4 nM
TGI [40]: 70.6 nM
GI50 [41]: 35.4 nM
TGI [41]: > 100 µM
GI50 [42]: 1370 nM
TGI [42]: > 100 µM
GI50 [43]: 0.0271 µM
TGI [43]: 0.075 µM
GI50 [44]: 0.0348 µM
TGI [44]: > 100 µM
GI50 [45]: 56.1 nM
TGI [45]: > 100 µM
GI50 [46]: 0.0499 µM
TGI [46]: > 100 µM
GI50 [47]: 31.4 nM
TGI [47]: > 100 µM
GI50 [48]: 37.3 nM
TGI [48]: > 100 µM
GI50 [49]: 41.9 nM
TGI [49]: > 100 µM
GI50 [50]: > 100000 nM
TGI [50]: > 100 µM
GI50 [51]: 1680 nM
TGI [51]: > 100 µM
GI50 [52]: 35.9 nM
TGI [52]: > 100 µM
GI50 [53]: 54.3 nM
TGI [53]: > 100 µM
GI50 [54]: 77.1 nM
TGI [54]: > 100000 nM

C=C1C(=O)O[C@H]2[C@H]1CC/C(COC(=O)NCc1ccc(Cn3c(=O)sn(-c4ccc(OC)cc4)c3=O)cc1)=C\CC[C@@]1(C)O[C@@H]21
GI50 [1]: 2050 nM
TGI [1]: 4.51 µM
GI50 [2]: 5650 nM
TGI [2]: 17.8 µM
GI50 [3]: 15.2 µM
TGI [3]: 29.1 µM
GI50 [4]: 1730 nM
TGI [4]: 3.27 µM
GI50 [5]: 4370 nM
TGI [5]: 16.3 µM
GI50 [6]: 2340 nM
TGI [6]: 6.83 µM
GI50 [7]: 561 nM
TGI [7]: 3.05 µM
GI50 [55]: 1850 nM
TGI [55]: 3.38 µM
GI50 [8]: 1810 nM
TGI [8]: 3.21 µM
GI50 [9]: 3500 nM
TGI [9]: 14.6 µM
GI50 [10]: 10.4 µM
TGI [10]: 25.5 µM
GI50 [11]: 1930 nM
TGI [11]: 3.78 µM
GI50 [12]: 1680 nM
TGI [12]: 3.36 µM
GI50 [13]: 2120 nM
TGI [13]: 5480 nM
GI50 [14]: 13.2 µM
TGI [14]: 26.9 µM
GI50 [15]: 1610 nM
TGI [15]: 3.47 µM
GI50 [16]: 2920 nM
TGI [16]: 14.2 µM
GI50 [17]: 1960 nM
TGI [17]: 3510 nM
GI50 [18]: 2850 nM
TGI [18]: 8.04 µM
GI50 [20]: 3750 nM
TGI [20]: 14 µM
GI50 [21]: 1730 nM
TGI [21]: 3.12 µM
GI50 [22]: 2190 nM
TGI [22]: 5650 nM
GI50 [23]: 1810 nM
TGI [23]: 3.76 µM
GI50 [24]: 1770 nM
TGI [24]: 3.63 µM
GI50 [25]: 1970 nM
TGI [25]: 4.11 µM
GI50 [56]: 1830 nM
TGI [56]: 3.84 µM
GI50 [26]: 1930 nM
TGI [26]: 5.95 µM
GI50 [27]: 12.9 µM
TGI [27]: 30.7 µM
GI50 [28]: 2970 nM
TGI [28]: 9.9 µM
GI50 [29]: 3700 nM
TGI [29]: 13.5 µM
GI50 [30]: 1670 nM
TGI [30]: 3100 nM
GI50 [31]: 12.3 µM
TGI [31]: 28.8 µM
GI50 [32]: 1610 nM
TGI [32]: 3040 nM
GI50 [33]: 1640 nM
TGI [33]: 3.98 µM
GI50 [34]: 2060 nM
TGI [34]: 4.81 µM
GI50 [35]: 2370 nM
TGI [35]: 5.82 µM
GI50 [36]: 2190 nM
TGI [36]: 5.27 µM
GI50 [37]: 2010 nM
TGI [37]: 4.52 µM
GI50 [38]: 3140 nM
TGI [38]: 9.86 µM
GI50 [39]: 15 µM
TGI [39]: 28.9 µM
GI50 [40]: 1960 nM
TGI [40]: 4150 nM
GI50 [41]: 3190 nM
TGI [41]: 9.46 µM
GI50 [42]: 1970 nM
TGI [42]: 4.1 µM
GI50 [43]: 12 µM
TGI [43]: 24.8 µM
GI50 [44]: 14.4 µM
TGI [44]: 27.4 µM
GI50 [45]: 2140 nM
TGI [45]: 4.96 µM
GI50 [46]: 11.7 µM
TGI [46]: 24.6 µM
GI50 [47]: 3440 nM
TGI [47]: 15.3 µM
GI50 [48]: 535 nM
TGI [48]: 5.2 µM
GI50 [49]: 1770 nM
TGI [49]: 3.61 µM
GI50 [50]: 1860 nM
TGI [50]: 4.53 µM
GI50 [51]: 1910 nM
TGI [51]: 3.49 µM
GI50 [52]: 4110 nM
TGI [52]: 13.9 µM
GI50 [57]: 2030 nM
TGI [57]: 4.34 µM
GI50 [53]: 1860 nM
TGI [53]: 3.84 µM
GI50 [54]: 1560 nM
TGI [54]: 2940 nM

CC(C)C(NC(=O)CNC(=O)OC(C)(C)C)C(=O)OCc1ccccc1 (stereo not drawn) (Boc-Gly-[ξV]-OBn)
GI50 [13]: 86.5 µg/mL
GI50 [19]: 30.4 µg/mL
